According to article PMC8341802 (RSC Chemical Biology, 2021):

Target: APOBEC3A (A3A) (Homo sapiens, UniProt P31941)
Type: biochemical

Sequence of APOBEC3A (A3A) (P31941 whole entry): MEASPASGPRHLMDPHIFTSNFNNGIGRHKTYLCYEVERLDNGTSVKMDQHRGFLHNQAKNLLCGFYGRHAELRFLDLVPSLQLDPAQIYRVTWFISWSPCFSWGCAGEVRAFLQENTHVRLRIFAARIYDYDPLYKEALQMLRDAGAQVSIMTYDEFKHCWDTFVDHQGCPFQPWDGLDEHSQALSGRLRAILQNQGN

IC50: 40.5 µM
Compound: O=C(O)C1=CC(=C(c2ccc(O)c(C(=O)O)c2)c2ccc(O)c(C(=O)O)c2)C=CC1=O [MN1, aurintricarboxylic acid]
